Data on eight compounds can be found in PubChem BioAssay (NCI).

SMILES strings stand for the structures. Where “and” joins values, the source holds several entries; their conditions need not be identical. Identical values can stand only once.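 Protocol summary: plate cells (96-well), add compound at 5 concentrations, incubate 48 h, interpolate endpoints linearly. At the GI50, growth is halved. TGI: total growth inhibition.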

Test systems include CCRF-CEM leukemia; UO-31 renal; U251 CNS; TK-10 renal; SK-OV-3 ovarian; RPMI-8226 leukemia; A549 NSCLC; SN12C renal; MDA-MB-231 breast; HCT-15 colon.
Common to all, as to experiment: NCI tumour cell line growth inhibition, 48 h

On to `COc1ccc2nc(-c3cc(-c4cc(OC)c(OC)c(OC)c4)n[nH]3)[nH]c2c1`, for which the GI50 in the assay with CCRF-CEM leukemia was 1.29 µM; with UO-31 renal, 1.57 µM; with U251 CNS it was 2.9 µM; in the assay on TK-10 renal, 2.21 µM; with SK-OV-3 ovarian it was 2.83 µM; in the assay on RPMI-8226 leukemia, 0.643 µM. Moreover, the GI50 in the assay on A549 NSCLC is 1.63 µM; in the assay on SN12C renal it was 2.06 µM; in the assay with MDA-MB-231 breast, 2.87 µM; in the assay on HCT-15 colon it was 2.5 µM. For the same compound, the TGI was 4.12 µM with CCRF-CEM leukemia; 4.11 µM in the assay with UO-31 renal; 11.5 µM in the assay with U251 CNS; 7.58 µM in the assay on TK-10 renal; 9.17 µM in the assay with SK-OV-3 ovarian; 2.53 µM in the assay with RPMI-8226 leukemia. Further, the TGI amounted to 5.25 µM with A549 NSCLC, 8.45 µM with SN12C renal, 12.9 µM with MDA-MB-231 breast and 10.7 µM with HCT-15 colon.
As for `O=C(Nc1ccccc1O)c1cccc(NC2=C(Cl)C(=O)N(Cc3ccccc3)C2=O)c1`, the GI50 in the assay with CCRF-CEM leukemia was below 0.0179 µM; with UO-31 renal it was 8.53 µM; in the assay on U251 CNS, 3.38 µM; in the assay on TK-10 renal, 4.69 µM; with SK-OV-3 ovarian, 12.8 µM; in the assay on RPMI-8226 leukemia it was 0.778 µM. The GI50 with A549 NSCLC is 12.4 µM; in the assay on SN12C renal, 2.22 µM; in the assay on MDA-MB-231 breast it was 1.89 µM; in the assay on HCT-15 colon, 2.02 µM. The TGI with CCRF-CEM leukemia was 3.85 µM; in the assay with UO-31 renal, 25.1 µM; with U251 CNS it was 13.9 µM; in the assay on TK-10 renal it was 13.4 µM; in the assay on SK-OV-3 ovarian it was 31.5 µM; in the assay with RPMI-8226 leukemia, 3.4 µM. The TGI was 24.8 µM in the assay with A549 NSCLC, 7.57 µM with SN12C renal, 7.53 µM in the assay with MDA-MB-231 breast and 5.13 µM in the assay on HCT-15 colon.
`Cn1cncc1[C@@](N)(c1ccc(Cl)cc1)c1ccc2c(c1)c(-c1cccc(Cl)c1)cc(=O)n2C`: the GI50 is 2.54 µM with CCRF-CEM leukemia; 1.97 µM with UO-31 renal; 1.4 µM in the assay on U251 CNS; 2.57 µM with TK-10 renal; 7.24 µM in the assay with SK-OV-3 ovarian; 1.58 µM in the assay with RPMI-8226 leukemia. The GI50 in the assay with A549 NSCLC was 2.05 µM; in the assay on SN12C renal, 2.48 µM; in the assay with MDA-MB-231 breast it was 2.52 µM; in the assay with HCT-15 colon, 2.08 µM. Besides, the TGI amounted to 18.8 µM in the assay with CCRF-CEM leukemia; 6.97 µM in the assay on UO-31 renal; 7.49 µM with U251 CNS; 10.8 µM in the assay on TK-10 renal; 21.2 µM in the assay on SK-OV-3 ovarian; 9.79 µM with RPMI-8226 leukemia. For the same compound, the TGI was 10.2 µM with A549 NSCLC, 14.9 µM in the assay with SN12C renal, 14.9 µM in the assay with MDA-MB-231 breast and 11.9 µM with HCT-15 colon.
As for `CC[C@H](C)[C@H]1NC(=O)[C@@H](N[C@](C)(O)[C@@H](N)CC(C)C)[C@@H](C)OC(=O)[C@H](Cc2ccc(OC)cc2)N(C)C(=O)[C@@H]2CCCN2C(=O)[C@H](CC(C)C)NC(=O)[C@@H](C)C(=O)[C@H](C(C)C)OC(=O)C[C@@H]1O`, the GI50 in the assay with CCRF-CEM leukemia is 0.0113 µM; in the assay with UO-31 renal it was 0.343 µM; with U251 CNS, 0.0119 µM; in the assay with TK-10 renal it was 0.0397 µM; in the assay on SK-OV-3 ovarian, 0.0191 µM; in the assay on RPMI-8226 leukemia, 0.0347 µM. The GI50 is 0.0115 µM with A549 NSCLC, 0.0115 µM in the assay with SN12C renal, 0.0263 µM in the assay with MDA-MB-231 breast and 0.217 µM in the assay with HCT-15 colon. The TGI in the assay with CCRF-CEM leukemia was found to be 0.232 µM; in the assay on UO-31 renal, 3.31 µM; in the assay with U251 CNS, 0.188 µM; in the assay with TK-10 renal, 0.557 µM; in the assay with SK-OV-3 ovarian it was 1.19 µM; in the assay with RPMI-8226 leukemia it was 0.177 µM. For the same compound, the TGI in the assay on A549 NSCLC is 0.47 µM; in the assay with SN12C renal, 0.316 µM; with MDA-MB-231 breast, 0.233 µM; in the assay on HCT-15 colon, 22.9 µM.
As to `COc1ccc(CCN2C(=O)C=CC2=O)cc1OC`, the TGI in the assay with CCRF-CEM leukemia stood at 2.93 µM; in the assay with UO-31 renal it was 3.05 µM; in the assay on U251 CNS it was 39.1 µM; in the assay on TK-10 renal it was 33.2 µM; in the assay on SK-OV-3 ovarian, 33 µM; in the assay on RPMI-8226 leukemia, 3.18 µM. Besides, the TGI turned out to be 50.2 µM with A549 NSCLC, 32.5 µM in the assay with SN12C renal, 28.5 µM with MDA-MB-231 breast and 3.83 µM in the assay with HCT-15 colon.
With `CCC(C)(C)C(=O)O[C@H]1C[C@@H](C)C=C2C=C[C@H](C)[C@H](CC[C@@H]3C[C@@H](O)CC(=O)O3)[C@H]21`, the TGI is 30.2 µM and > 30 µM in the assay on CCRF-CEM leukemia; 14.7 µM and 10.1 µM in the assay with UO-31 renal; 5.44 µM and > 30 µM with U251 CNS; 18.2 µM in the assay on TK-10 renal; 21 µM and > 30 µM with SK-OV-3 ovarian; 28.5 µM and > 30 µM in the assay with RPMI-8226 leukemia. The TGI in the assay with A549 NSCLC was 20.4 µM and 18.8 µM; with SN12C renal it was 16.5 µM and > 30 µM; with MDA-MB-231 breast, 0.732 µM; in the assay on HCT-15 colon it was 19 µM and > 30 µM. For the same compound, the GI50 was 2.85 µM with UO-31 renal; 0.371 µM with U251 CNS; 5.38 µM in the assay on TK-10 renal; 7.56 µM in the assay with SK-OV-3 ovarian; 3.79 µM in the assay with RPMI-8226 leukemia; 6.79 µM in the assay with A549 NSCLC. For the same compound, the GI50 was 0.949 µM in the assay on SN12C renal, 0.224 µM with MDA-MB-231 breast and 2.15 µM in the assay on HCT-15 colon.
As to `c1ccc(Cn2cc3c(c2-c2ccccc2)CCc2cnoc2-3)cc1`, the GI50 in the assay with CCRF-CEM leukemia is 3.59 µM; in the assay with UO-31 renal, 7.65 µM; in the assay on U251 CNS, 3.65 µM; in the assay on TK-10 renal it was 8.22 µM; with SK-OV-3 ovarian it was 7.36 µM; in the assay with RPMI-8226 leukemia it was 3.1 µM. The GI50 with A549 NSCLC was 5.73 µM; in the assay on SN12C renal it was 7.83 µM; in the assay with MDA-MB-231 breast, 5.68 µM; in the assay on HCT-15 colon, 3.72 µM. In addition, the TGI in the assay on CCRF-CEM leukemia, in the assay with UO-31 renal, with U251 CNS, in the assay on TK-10 renal, with SK-OV-3 ovarian and with RPMI-8226 leukemia was above 100 µM throughout. For the same compound, the TGI in the assay on A549 NSCLC, with SN12C renal, in the assay on MDA-MB-231 breast and in the assay with HCT-15 colon was above 100 µM in each case.
Regarding `CCOc1cccc(/C=N/NC(=O)c2ccc(Nc3ccnc(C(F)(F)F)c3)cc2)c1O`, the GI50 was 0.332 µM in the assay on CCRF-CEM leukemia; 0.781 µM in the assay with UO-31 renal; 0.906 µM in the assay on U251 CNS; 2.48 µM in the assay on TK-10 renal; 2.01 µM with SK-OV-3 ovarian; 0.359 µM in the assay with RPMI-8226 leukemia. Moreover, the GI50 with A549 NSCLC was 2.13 µM; in the assay on SN12C renal it was 2.45 µM; in the assay on MDA-MB-231 breast, 1.7 µM; in the assay with HCT-15 colon it was 0.515 µM. Besides, the TGI with CCRF-CEM leukemia is 8.36 µM; in the assay with UO-31 renal, above 25.7 µM; in the assay on U251 CNS, above 58 µM; in the assay on TK-10 renal it was above 100 µM; in the assay with SK-OV-3 ovarian, above 57.8 µM; in the assay on RPMI-8226 leukemia, 20.6 µM. Besides, the TGI with A549 NSCLC is above 69.1 µM; with SN12C renal, above 100 µM; in the assay with MDA-MB-231 breast, above 100 µM; in the assay on HCT-15 colon it was above 100 µM.
